Reference: ChEMBL document CHEMBL3779837, “Inhibiting the Inflammasome: A Chemical Perspective” (J Med Chem, 2016)

Columns and labels:
THP-1 = test: Inhibition of caspase-1-mediated IL-1beta production in LPS/ATP induced human THP1 cells by ELISA analysis; type: functional, cell-based
Caspase-1 = biological target: T1, Caspase-1 (Homo sapiens, UniProt P29466); test: Inhibition of caspase-1 in LPS stimulated human PMBC cells after 2 hrs by ELISA analysis; type: cell-based
T1 sequence (P29466 whole entry): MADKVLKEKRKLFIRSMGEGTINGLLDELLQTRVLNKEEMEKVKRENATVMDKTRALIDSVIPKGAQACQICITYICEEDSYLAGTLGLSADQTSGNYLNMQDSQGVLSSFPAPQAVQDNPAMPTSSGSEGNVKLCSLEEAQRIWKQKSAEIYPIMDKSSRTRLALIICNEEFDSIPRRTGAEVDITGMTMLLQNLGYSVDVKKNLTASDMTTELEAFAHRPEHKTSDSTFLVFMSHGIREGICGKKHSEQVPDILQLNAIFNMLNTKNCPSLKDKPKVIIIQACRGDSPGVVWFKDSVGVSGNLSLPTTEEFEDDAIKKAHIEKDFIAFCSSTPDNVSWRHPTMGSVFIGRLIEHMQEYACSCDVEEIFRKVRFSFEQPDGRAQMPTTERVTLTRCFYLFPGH

Pannexin-1 = Pannexin-1 (Homo sapiens, UniProt Q96RD7); test: Binding affinity to pannexin 1 channel (unknown origin)
[1] = Inhibition of organic anion transporter (unknown origin); set-up: species or system Homo sapiens
clinical = conditions: human, plasma, po, 500 mg
Toll-like receptor 4 = biological target: T2, Toll-like receptor 4 (Mus musculus, UniProt Q9QUK6); test: Inhibition of TLR4 in LPS/INFgamma stimulated mouse peritoneal macrophages assessed as inhibition of IL1-beta after 20 hrs by ELISA analysis
T2 sequence (Q9QUK6 whole entry): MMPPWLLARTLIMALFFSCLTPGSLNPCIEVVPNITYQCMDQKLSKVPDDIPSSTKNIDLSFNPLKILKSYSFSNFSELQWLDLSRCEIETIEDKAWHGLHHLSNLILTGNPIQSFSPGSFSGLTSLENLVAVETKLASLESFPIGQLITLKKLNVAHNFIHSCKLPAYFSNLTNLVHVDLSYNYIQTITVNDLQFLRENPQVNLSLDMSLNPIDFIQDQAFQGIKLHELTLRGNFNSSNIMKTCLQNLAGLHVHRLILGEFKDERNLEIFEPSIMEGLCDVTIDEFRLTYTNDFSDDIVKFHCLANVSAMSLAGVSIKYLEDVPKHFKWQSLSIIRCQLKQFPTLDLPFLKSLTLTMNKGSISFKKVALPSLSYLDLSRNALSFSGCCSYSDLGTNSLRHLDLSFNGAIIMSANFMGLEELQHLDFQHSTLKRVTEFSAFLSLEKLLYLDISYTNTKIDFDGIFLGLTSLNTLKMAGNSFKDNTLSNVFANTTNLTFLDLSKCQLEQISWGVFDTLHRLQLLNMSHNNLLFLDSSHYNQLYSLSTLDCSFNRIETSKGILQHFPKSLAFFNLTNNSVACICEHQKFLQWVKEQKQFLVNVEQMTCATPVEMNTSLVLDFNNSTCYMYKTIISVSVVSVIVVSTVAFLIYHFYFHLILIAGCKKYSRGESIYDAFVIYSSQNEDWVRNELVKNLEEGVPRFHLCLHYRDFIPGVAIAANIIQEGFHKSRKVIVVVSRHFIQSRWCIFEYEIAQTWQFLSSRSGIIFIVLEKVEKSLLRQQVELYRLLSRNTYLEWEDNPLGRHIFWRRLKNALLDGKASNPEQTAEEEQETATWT

[2] = biological target: NACHT, LRR and PYD domains-containing protein 3 (Mus musculus, UniProt Q8R4B8); test: Inhibition of NLRP3 in LPS stimulated mouse BMDM cells after 15 mins followed by addition of ATP by ELISA analysis; type: cell-based
[3] = Half life in C57BL/6 mouse at 3 mg/kg, iv administered as single dose; type: ADME, organism-based; conditions: in vivo
[4] = Oral bioavailability in single dosed C57BL/6 mouse at 20 mg/kg; type: ADME, organism-based; conditions: in vivo

Sequence of Pannexin-1 (Q96RD7 whole entry): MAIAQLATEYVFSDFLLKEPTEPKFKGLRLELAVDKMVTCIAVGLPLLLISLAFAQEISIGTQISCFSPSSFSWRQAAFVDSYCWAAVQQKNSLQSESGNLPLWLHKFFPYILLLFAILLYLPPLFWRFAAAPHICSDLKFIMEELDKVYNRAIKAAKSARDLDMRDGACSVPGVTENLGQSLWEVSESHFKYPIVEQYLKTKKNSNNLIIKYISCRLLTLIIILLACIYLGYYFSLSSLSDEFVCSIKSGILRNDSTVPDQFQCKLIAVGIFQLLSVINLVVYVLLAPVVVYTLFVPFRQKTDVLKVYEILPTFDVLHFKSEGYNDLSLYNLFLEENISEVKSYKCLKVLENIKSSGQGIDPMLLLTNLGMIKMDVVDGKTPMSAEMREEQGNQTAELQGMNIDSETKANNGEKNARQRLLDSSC
Sequence of NACHT, LRR and PYD domains-containing protein 3 (Q8R4B8 whole entry, the tested form may be a part): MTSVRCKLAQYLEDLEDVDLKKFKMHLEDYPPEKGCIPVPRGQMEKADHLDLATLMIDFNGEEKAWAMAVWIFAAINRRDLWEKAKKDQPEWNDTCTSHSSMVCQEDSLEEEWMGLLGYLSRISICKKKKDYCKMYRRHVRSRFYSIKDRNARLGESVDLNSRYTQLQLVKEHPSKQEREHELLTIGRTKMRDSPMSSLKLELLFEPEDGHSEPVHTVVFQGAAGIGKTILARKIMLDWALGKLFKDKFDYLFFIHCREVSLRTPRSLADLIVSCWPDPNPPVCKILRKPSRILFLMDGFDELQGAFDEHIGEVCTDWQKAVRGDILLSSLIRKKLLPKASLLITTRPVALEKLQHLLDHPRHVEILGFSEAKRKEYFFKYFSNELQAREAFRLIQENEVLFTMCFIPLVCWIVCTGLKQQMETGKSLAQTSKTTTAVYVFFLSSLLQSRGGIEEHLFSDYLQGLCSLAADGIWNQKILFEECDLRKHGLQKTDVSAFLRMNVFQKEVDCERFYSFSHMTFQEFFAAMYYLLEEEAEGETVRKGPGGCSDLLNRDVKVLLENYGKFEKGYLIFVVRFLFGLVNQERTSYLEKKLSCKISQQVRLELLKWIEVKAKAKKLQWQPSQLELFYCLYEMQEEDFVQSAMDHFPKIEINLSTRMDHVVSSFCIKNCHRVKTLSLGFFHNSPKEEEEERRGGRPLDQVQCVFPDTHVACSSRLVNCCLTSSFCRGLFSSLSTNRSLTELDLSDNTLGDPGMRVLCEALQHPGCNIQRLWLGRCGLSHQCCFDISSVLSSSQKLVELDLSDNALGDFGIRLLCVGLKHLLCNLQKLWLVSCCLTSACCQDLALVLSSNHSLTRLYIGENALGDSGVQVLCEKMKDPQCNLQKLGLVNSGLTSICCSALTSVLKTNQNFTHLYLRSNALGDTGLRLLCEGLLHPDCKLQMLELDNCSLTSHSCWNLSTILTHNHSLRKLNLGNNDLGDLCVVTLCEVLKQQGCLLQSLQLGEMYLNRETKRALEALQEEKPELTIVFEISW

In the case of O=C1C(Br)=C[C@@H](O)[C@@H]2O[C@H]12, the IC50 (THP-1) is reported as 190 nM.
O=C1C(Br)=C[C@H](O)[C@H]2O[C@@H]12 showed an IC50 (THP-1) of 170 nM.
Molecule CCO[C@@H]1OC(=O)C[C@@H]1NC(=O)[C@@H]1CCCN2C(=O)CC[C@H](NC(=O)c3nccc4ccccc34)C(=O)N12 [PRALNACASAN] has an IC50 (Caspase-1) of 420 nM.
Molecule O=C1C(Br)=C[C@@H](O)[C@H]2O[C@@H]12 has an IC50 (THP-1) of 200 nM.
With O=C1C(Br)=C[C@H](O)[C@@H]2O[C@H]12 the IC50 (THP-1) was 280 nM.
CCCN(CCC)S(=O)(=O)c1ccc(C(=O)O)cc1 [PROBENECID] gave an IC50 (Pannexin-1) of 150000 nM, an IC50 [1] of under 100000 nM and a Cmax at 48 h (clinical) of 124 µM.
With CCOC(=O)C1=CCCC[C@H]1S(=O)(=O)Nc1ccc(F)cc1Cl [RESATORVID] the IC50 (Toll-like receptor 4) was 5.7 nM.
Work on O=C[C@H](CC(=O)O)NC(=O)[C@@H]1CCCN2C(=O)CC[C@H](NC(=O)c3nccc4ccccc34)C(=O)N12 [VRT-18858] yielded an IC50 (Caspase-1) of 670 nM.
In the case of O=[N+]([O-])/C=C/c1ccc2c(c1)OCO2, the IC50 [2] is reported as 2000 nM.
Molecule CC(C)(O)c1coc(S(=O)(=O)NC(=O)Nc2c3c(cc4c2CCC4)CCC3)c1 has a half-life [3] of 3 h and a bioavailability [4] of 68%.
